The IC50 is the concentration needed to halve the response being measured. One may read the inhibition as the share of the control response that was lost under treatment. The term melting point denotes the temperature, or range, at which the solid turns liquid.

Data on 16 compounds can be found in PMC9604400, “Synthesis, Anticancer and Antitubercular Properties of New Chalcones and Their Nitrogen-Containing Five-Membered Heterocyclic Hybrids Bearing Sulfonamide Moiety” (International Journal of Molecular Sciences, 2022).

One data set addresses α-glucosidase. The following applies: Figure 1, literature compound; cited from earlier work.
The test system of data set [1] is 60 human cancer cell lines. The experiment in a line: NCI-60 screen (SRB), whole panel. Format: cell-based. To be noted: Homo sapiens; single dose 10 μM, mean over 60 cell lines; over 100% = cell death; read-out: Mean growth inhibition (GI) percentage.
The test system of data set [2] is Mycobacterium bovis BCG (ATCC 35734). The experiment in a line: microbe, parasite or virus in culture. Format: cell-based. To be noted: for MIC: Mycobacterium tuberculosis variant bovis BCG, read-out: MIC Against M. bovis BCG; for MIC Against M. bovis BCG: agar dilution SPOTi. In general terms: In agar dilution, organisms are placed on agar that contains the substance at set levels.

For data set [3], the system named is M. tuberculosis H37Rv. The experiment in a line: Checkerboard synergism assay. It is filed as cell-based, Mycobacterium tuberculosis. To be noted: for MIC: Mycobacterium tuberculosis, H37RV, checkerboard, alone.
Description: The synergism assays were carried out in 96-well plates with Middlebrook 7H9 medium supplemented with OADC.
Data set [4] in a line: Cytotoxicity on Vero cell line (MTT). It is filed as cell-based, African green monkey. The following applies: African green monkey, Vero cells (African green monkey kidney, ATCC CCL-81); MTT, 24 h.
Data set [5] concerns Mycobacterium tuberculosis H37Rv (ATCC 27294). The experiment in a line: microbe, parasite or virus in culture. To be noted: agar dilution SPOTi, read-out: MIC Against M. tuberculosis H37Rv. It is filed as cell-based.
The next data set deals with Vero cell line. The experiment in a line: Cytotoxicity on Vero cell line (MTT). It is filed as cell-based, African green monkey. To be noted: Vero IC50 / MIC M. tuberculosis H37Rv.
The conditions of data set [6]: Figure 1, literature compound, cited from earlier work.
For data set [7], the system named is M. tuberculosis H37Rv. The experiment in a line: Growth curves in liquid medium and re-plating (cidal or static). Format: cell-based, Mycobacterium tuberculosis. To be noted: for cidal or static effect: re-plating on solid media without compound, up to 10×MIC.
Setting [8] is: compound in combination with AMK.
The mark [9] stands for this setting: compound in combination with INH.
The mark [10] stands for this setting: compound in combination with LVX.
Where [11] appears, read: compound in combination with RIF.
Setting [12] is: 10×MIC, 21 days, compared with day 0.
The mark [13] stands for this setting: antibiotic in combination with 20a.
The mark [14] stands for this setting: antibiotic in combination with 20f.

In brackets after ≈: the same amount, converted by molar mass. Read-outs that look alike come from different tables or passages of the source.

On to `Cc1ccc(S(=O)(=O)Nc2ccc(C(=O)/C=C/c3ccc(O)c(O)c3)cc2)cc1` [Compound 2], for which the IC50 at α-glucosidase is 400 nM.

`COc1cc(OC)c(S(=O)(=O)NNC(=O)c2ccncc2)cc1C(=O)C=Cc1ccccc1` [Compound 20a, 5-Cinnamoyl-N’-isonicotinoyl-2,4-dimethoxybenzenesulfonohydrazide] registered a melting point of 143 to 145 °C. Also, the inhibition at 10 µM in [1] amounted to 19%. In data set [2], the MIC is 11 µM (≈ 5.14 µg/mL) and the “MIC Against M. bovis BCG” value is 11 µM (≈ 5.14 µg/mL). Further, in the data set on M. tuberculosis H37Rv [3], the MIC came to 5 µg/mL. Also, in the data set with M. tuberculosis H37Rv [3] (setting [8]), the “FICI Index” value was found to be 2.00 and the “MIC Combination” value was 5 µg/mL. Moreover, in the data set with M. tuberculosis H37Rv [3] (setting [9]), the “FICI Index” value came out at 0.75 and the “MIC Combination” value is 1.25 µg/mL. In the data set with M. tuberculosis H37Rv [3] (setting [10]), the “FICI Index” value stood at 1.25 and the “MIC Combination” value was 1.25 µg/mL. Besides, in the data set on M. tuberculosis H37Rv [3] (setting [11]), the “FICI Index” value was 1.25 and the “MIC Combination” value came out at 5 µg/mL. In addition, the IC50 at 24 h in data set [4] was 6050 ± 1390 nM. The MIC in data set [5] (Mycobacterium tuberculosis) amounted to 11 µM (≈ 5.14 µg/mL). In data set [5], the MIC is 11 µM (≈ 5.14 µg/mL).

In turn, `COc1cc(OC)c(S(N)(=O)=O)cc1C(=O)/C=C/c1ccc2c(c1)OCO2` [Compound 17f, (E)-5-(3-(Benzo[d][1,3]dioxol-5-yl)acryloyl)-2,4-dimethoxybenzenesulfonamide] yielded a melting point of 257 to 258 °C. Besides, the inhibition at 10 µM in data set [1] was determined as 10.1%. In data set [2], the MIC was over 25 µM. Moreover, in the data set with Vero cell line, the “Selectivity Index (SI) (SI = IC50/MIC)” value was determined as 0.07. This compound also gave an IC50 at 24 h in [4] of 1700 ± 1740 nM. For the same compound, the MIC in data set [5] (Mycobacterium tuberculosis) was 25 µM (≈ 9.79 µg/mL).

As to `NS(=O)(=O)c1ccc(N2N=C(C(F)(F)F)CC2c2ccc(F)cc2F)cc1` (stereo not shown) [Compound 4], the ED50 in data set [6] (test not given) is 7400 nM.

`COc1cc(OC)c(S(=O)(=O)NNC(=O)c2ccncc2)cc1C(=O)/C=C/c1cc(OC)c(OC)c(OC)c1` [Compound 20e, (E)-N’-Isonicotinoyl-2,4-dimethoxy-5-(3-(3,4,5-trimethoxyphenyl)acryloyl)benzenesulfonohydrazide] gave a melting point of 162 to 165 °C. Besides, in data set [2], the MIC worked out at 9 µM (≈ 5.02 µg/mL) and the “MIC Against M. bovis BCG” value is given as 9.0 µM (≈ 5.02 µg/mL). Besides, the “growth of M. tuberculosis H37Rv in liquid medium (optical density)” value (from here on “growth of M. tuberculosis H37Rv”) with M. tuberculosis H37Rv [7] (1×MIC, after 21 days) is listed as “moderate growth”. Moreover, the “growth of M. tuberculosis H37Rv” value in the data set with M. tuberculosis H37Rv [7] (setting [12]) is “modest growth”. Further, in the data set with M. tuberculosis H37Rv [7], the “cidal or static effect” value is “bacteriostatic”. Moreover, the “Selectivity Index (SI) (SI = IC50/MIC)” value with Vero cell line is recorded as 0.03. In data set [4], this compound came in with an IC50 at 24 h of 260 ± 690 nM. For the same compound, in data set [5] (Mycobacterium tuberculosis), the MIC was 9 µM (≈ 5.02 µg/mL).

On to `Cc1ccc(S(=O)(=O)Nc2ccc(C(=O)/C=C/c3ccc(Br)cc3)cc2)cc1` [Compound 1], for which, in [6], the LD50 was 220 µM.

Consider `COc1ccc(/C=C/C(=O)c2ccc(OC)c(S(=O)(=O)NNC(=O)c3ccncc3)c2)cc1` [Compound 19d, (E)-N’-Isonicotinoyl-2-methoxy-5-(3-(4-methoxyphenyl)acryloyl)benzenesulfonohydrazide], for which the melting point lay in the range of 216 to 217 °C. The MIC in [2] is over 21 µM. In addition, in the data set with Vero cell line, the “Selectivity Index (SI) (SI = IC50/MIC)” value is 0.10. Further, in data set [4], half-maximal inhibition (IC50 at 24 h) required 2190 ± 680 nM. In addition, the MIC in [5] (Mycobacterium tuberculosis) was 21 µM (≈ 9.82 µg/mL).

As for `COc1ccc(C(=O)C=Cc2ccccc2)cc1S(=O)(=O)NNC(=O)c1ccncc1` [Compound 19a, 5-Cinnamoyl-N’-isonicotinoyl-2-methoxybenzenesulfonohydrazide], the melting point is 227 to 229 °C. The inhibition at 10 µM in [1] is 3.63%. For the same compound, the MIC in data set [2] is over 23 µM. The “Selectivity Index (SI) (SI = IC50/MIC)” value in the data set on Vero cell line is 0.28. This compound had an IC50 at 24 h in [4] of 6320 ± 820 nM. In data set [5] (Mycobacterium tuberculosis), the MIC was 23 µM (≈ 10.1 µg/mL).

In the case of `COc1cc(OC)c(S(N)(=O)=O)cc1C1=NN(C(N)=S)C(c2ccc(Cl)cc2)C1` (stereo not shown) [Compound 27d, 5-(4-Chlorophenyl)-3-(2,4-dimethoxy-5-sulfamoylphenyl)-4,5-dihydro-1H-pyrazole-1-carbothioamide], the melting point lay in the range of 223 to 225 °C. Besides, the inhibition at 10 µM in data set [1] is 2.34%.

`COc1ccc(/C=C/C(=O)c2cc(S(=O)(=O)NNC(=O)c3ccncc3)c(OC)cc2OC)cc1` [Compound 20d, (E)-N’-Isonicotinoyl-2,4-dimethoxy-5-(3-(4-methoxyphenyl)acryloyl)benzenesulfonohydrazide]: the melting point fell in the range of 214 to 217 °C. The MIC in [2] is over 20 µM. Moreover, the “Selectivity Index (SI) (SI = IC50/MIC)” value in the data set on Vero cell line is reported as 0.05. Besides, the half-inhibitory concentration (IC50) at 24 h in [4] was 1000 ± 1200 nM. For the same compound, in data set [5] (Mycobacterium tuberculosis), the MIC is 20 µM (≈ 9.95 µg/mL).

The compound `COc1ccc(C(=O)/C=C/c2ccc(C)cc2)cc1S(=O)(=O)Nc1cccnc1` [Compound 16c, (E)-2-Methoxy-N-(pyridin-3-yl)-5-(3-(p-tolyl)acryloyl)benzenesulfonamide] came in with a melting point of 231 to 234 °C. Further, the inhibition at 10 µM in [1] was 12.2%.

Compound `COc1cc(OC)c(S(=O)(=O)NNC(=O)c2ccncc2)cc1C(=O)/C=C/c1ccc2c(c1)OCO2` [Compound 20f, (E)-5-(3-(Benzo[d][1,3]dioxol-5-yl)acryloyl)-N’-isonicotinoyl-2,4-dimethoxybenzenesulfonohydrazide] yielded a melting point of 150 to 152 °C. In data set [1], the inhibition at 10 µM was determined as 4.19%. In addition, the MIC in data set [2] was 20 µM (≈ 10.2 µg/mL). Also, the MIC with M. tuberculosis H37Rv [3] was determined as 5 µg/mL. In addition, in the data set on M. tuberculosis H37Rv [3] (setting [8]), the “FICI Index” value is given as 2.00 and the “MIC Combination” value turned out to be 5 µg/mL. Besides, in the data set on M. tuberculosis H37Rv [3] (setting [9]), the “FICI Index” value amounted to 1.00 and the “MIC Combination” value was determined as 2.5 µg/mL. Also, in the data set on M. tuberculosis H37Rv [3] (setting [10]), the “FICI Index” value amounted to 1.00 and the “MIC Combination” value turned out to be 2.5 µg/mL. The “MIC Combination” value in the data set with M. tuberculosis H37Rv [3] (setting [11]) amounted to 1.25 µg/mL. In addition, the “interaction (from FICI)” value with M. tuberculosis H37Rv [3] (in combination with rifampicin) is listed as “synergism”. Moreover, the “growth of M. tuberculosis H37Rv” value in the data set with M. tuberculosis H37Rv [7] (1×MIC, after 21 days) is recorded as “moderate growth”. Besides, in the data set with M. tuberculosis H37Rv [7] (setting [12]), the “growth of M. tuberculosis H37Rv” value was “no significant growth”. The “cidal or static effect” value with M. tuberculosis H37Rv [7] was “bacteriostatic”. For the same compound, the “Selectivity Index (SI) (SI = IC50/MIC)” value in the data set with Vero cell line stood at 0.26. Moreover, the IC50 at 24 h in data set [4] worked out at 2550 ± 930 nM. For the same compound, the MIC in data set [5] (Mycobacterium tuberculosis) was determined as 9.8 µM (≈ 5.01 µg/mL).

For `NNC(=O)c1ccncc1` [Isoniazid, isoniazid, reference compound], the MIC in data set [2] was determined as 0.36 µM (≈ 0.0494 µg/mL); in the data set on M. tuberculosis H37Rv [3] it was 0.012 µg/mL; in [5] (Mycobacterium tuberculosis), 0.36 µM (≈ 0.0494 µg/mL). Further, the figures for the “FICI Index” value with M. tuberculosis H37Rv [3] (setting [13]) and in the data set with M. tuberculosis H37Rv [3] (setting [14]) were 0.75 and 1.00, respectively. Moreover, the “MIC Combination” value in the data set with M. tuberculosis H37Rv [3] (setting [13]) and with M. tuberculosis H37Rv [3] (setting [14]) was 0.006 µg/mL in each case.

`COc1ccc(C2=NN(C=O)C(c3ccc(Cl)cc3)C2)cc1S(N)(=O)=O` (stereo not shown) [Compound 22a, 5-(5-(4-Chlorophenyl)-1-formyl-4,5-dihydro-1H-pyrazol-3-yl)-2-methoxybenzenesulfonamide]: the melting point was in the range of 230 to 231 °C. Also, the inhibition at 10 µM in data set [1] worked out at 2.15%.

Turning to `COc1ccc(C(=O)C=Cc2ccccc2)cc1S(=O)(=O)Nc1cccnc1` [Compound 16a, 5-Cinnamoyl-2-methoxy-N-(pyridin-3-yl)benzenesulfonamide], the melting point fell in the range of 229 to 230 °C. Also, the inhibition at 10 µM in [1] was 16.5%.

`COc1ccc(C(=O)/C=C/c2ccc3c(c2)OCO3)cc1S(=O)(=O)Nc1cccnc1` [Compound 16f, (E)-5-(3-(Benzo[d][1,3]dioxol-5-yl)acryloyl)-2-methoxy-N-(pyridin-3-yl)benzenesulfonamide] had a melting point of 220 to 223 °C. Also, the inhibition at 10 µM in data set [1] amounted to 12.9%.
